Consider one cell line from the supplement of paper PMC10307832.

Experiment in all cases: relative viability (nuclei count vs DMSO), 5 days (fraction); higher = more cells survive
Compound in the assay “Shikonin + Navitoclax”: CC(C)=CC[C@@H](O)C1=CC(=O)c2c(O)ccc(O)c2C1=O [Shikonin] + CC1(C)CCC(c2ccc(Cl)cc2)=C(CN2CCN(c3ccc(C(=O)NS(=O)(=O)c4ccc(N[C@H](CCN5CCOCC5)CSc5ccccc5)c(S(=O)(=O)C(F)(F)F)c4)cc3)CC2)C1 [Navitoclax] (partner 0.5 µM)
A digest of the protocol:
(§1)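 Relative viability divides the nuclei count in treated wells by that in vehicle wells. Lung cancer cell lines were seeded in 1536-well plates, dosed by pin tool the next day, and fixed and stained after 5 days in one step with final 0.05% Triton X-100, 1% formaldehyde and 1 ug/ml Hoechst. Dosing was a single drug or a fixed anchor-drug dose plus five library-drug doses (not always all listed) in √10 steps, and values are medians of duplicate plates imaged at 4×.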

Compound in assay [1]: CC(C)N(CCCNC(=O)Nc1ccc(C(C)(C)C)cc1)C[C@H]1O[C@@H](n2ccc3c(N)ncnc32)[C@H](O)[C@@H]1O + Nc1nc2[nH]cc(CCc3ccc(C(=O)N[C@@H](CCC(=O)O)C(=O)O)cc3)c2c(=O)[nH]1 [Pemetrexed] (partner 0.2 µM)
A digest of the protocol: as §1

Compound in the assay “Shikonin + Dasatinib”: CC(C)=CC[C@@H](O)C1=CC(=O)c2c(O)ccc(O)c2C1=O [Shikonin] + Cc1nc(Nc2ncc(C(=O)Nc3c(C)cccc3Cl)s2)cc(N2CCN(CCO)CC2)n1 [Dasatinib] (partner 0.075 µM)
The method, boiled down:
as §1

Compound in assay [2]: CC(C)N(CCCNC(=O)Nc1ccc(C(C)(C)C)cc1)C[C@H]1O[C@@H](n2ccc3c(N)ncnc32)[C@H](O)[C@@H]1O + Cc1cc(Nc2cc(N3CCN(C)CC3)nc(Sc3ccc(NC(=O)C4CC4)cc3)n2)n[nH]1 [Tozasertib] (partner 0.1 µM)
A digest of the protocol:
as §1

In the case of SW 1573, the relative viability in the assay with Shikonin + Navitoclax (first compound 0.01 µM) was 1.2; in the assay with Shikonin + Navitoclax (first compound 0.1 µM), 1.13; in the assay with Shikonin + Navitoclax (first compound 0.3162 µM), 1.01; with Shikonin + Navitoclax (first compound 1 µM), 0.869; in assay [1] (first compound 0.08 µM), 0.88; in assay [1] (first compound 0.253 µM), 0.804. For the same cell line, the relative viability was 0.829 in assay [1] (first compound 0.8 µM); 0.832 in assay [1] (first compound 2.53 µM); 0.778 in assay [1] (first compound 8 µM); 0.591 in the assay with Shikonin + Dasatinib (first compound 0.01 µM); 0.546 with Shikonin + Dasatinib (first compound 0.1 µM); 0.444 in the assay with Shikonin + Dasatinib (first compound 0.3162 µM). Besides, the relative viability turned out to be 0.144 with Shikonin + Dasatinib (first compound 1 µM); 0.201 in assay [2] (first compound 0.08 µM); 0.151 in assay [2] (first compound 0.253 µM); 0.201 in assay [2] (first compound 0.8 µM); 0.193 in assay [2] (first compound 2.53 µM); 0.163 in assay [2] (first compound 8 µM).
